Data taken from PubChem BioAssay AID1117356 (Cheminformatics & Chemogenomics Research Group (CCRG), …, 2015).
Active and inactive are the calls of the source. The rule behind the calls is not given here.

Molecular target: Receptor-type tyrosine-protein kinase FLT3 (Homo sapiens) (UniProt P36888)
Experiment: inhibitors of Homo sapiens fms-like tyrosine kinase 3, primary HTS, cell-free, LANCE Ultra TR-FRET, NPC library from NCATS (AID 1117356)
Conditions: recombinant FLT3, LANCE Ultra TR-FRET kinase assay, stronger effect = higher value

Sequence of Receptor-type tyrosine-protein kinase FLT3 (Homo sapiens) (P36888 whole entry, looked up): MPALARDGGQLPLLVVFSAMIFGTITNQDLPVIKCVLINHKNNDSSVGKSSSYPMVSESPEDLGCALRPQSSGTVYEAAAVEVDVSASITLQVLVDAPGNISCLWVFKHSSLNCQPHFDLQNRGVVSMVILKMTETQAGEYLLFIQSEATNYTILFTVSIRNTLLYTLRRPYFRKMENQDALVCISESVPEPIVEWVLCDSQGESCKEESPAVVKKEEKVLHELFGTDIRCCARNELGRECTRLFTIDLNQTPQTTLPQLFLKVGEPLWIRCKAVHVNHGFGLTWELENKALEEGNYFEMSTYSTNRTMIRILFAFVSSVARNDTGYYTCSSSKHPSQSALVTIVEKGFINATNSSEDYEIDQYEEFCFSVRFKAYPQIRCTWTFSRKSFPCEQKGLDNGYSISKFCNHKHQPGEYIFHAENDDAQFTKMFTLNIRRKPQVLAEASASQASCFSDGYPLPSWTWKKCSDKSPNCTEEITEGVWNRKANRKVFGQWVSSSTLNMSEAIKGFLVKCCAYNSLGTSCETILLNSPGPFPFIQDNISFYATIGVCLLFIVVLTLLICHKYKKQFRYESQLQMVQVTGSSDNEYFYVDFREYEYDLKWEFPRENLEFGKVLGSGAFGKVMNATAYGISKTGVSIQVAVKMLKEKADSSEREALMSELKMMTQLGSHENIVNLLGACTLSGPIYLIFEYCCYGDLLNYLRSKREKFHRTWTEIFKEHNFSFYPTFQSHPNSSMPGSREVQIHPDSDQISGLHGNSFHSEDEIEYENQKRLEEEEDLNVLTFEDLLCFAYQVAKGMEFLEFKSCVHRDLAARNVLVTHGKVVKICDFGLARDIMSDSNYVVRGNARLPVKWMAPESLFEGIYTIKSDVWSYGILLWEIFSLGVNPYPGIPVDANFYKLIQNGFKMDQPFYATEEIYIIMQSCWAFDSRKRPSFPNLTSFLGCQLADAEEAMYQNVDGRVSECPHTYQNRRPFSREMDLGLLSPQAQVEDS

SMILES	inhibition (at 20 µM)	inhibition (inhibition, at 0.2 µM)	inhibition (inhibition, at 2 µM)
C[C@@]12C(=O)OC(=O)[C@]1(C)C1CCC2O1	-4.71% (inactive)	-12.1%	6.97%
O=[N+]([O-])c1ccc(O)c2ncccc12	7.93% (inactive)	-14.3%	3.78%
O=c1[nH]c(=O)n([C@H]2C[C@H](O)[C@@H](CO)O2)cc1F	-10.5% (inactive)	-23%	4.81%
CC(C)C[C@H](NC(=O)[C@H](Cc1ccccc1)NC(=O)c1cnccn1)B(O)O	3.25% (inactive)	-26.9%	13.7%
[O-][n+]1ccccc1SSc1cccc[n+]1[O-]	-9.22% (inactive)	-25.4%	5.1%
CCN(CC)CCOc1ccc(/C(=C(\Cl)c2ccccc2)c2ccccc2)cc1	-2.64% (inactive)	-10.4%	-9.83%
Cc1cc2c(C(C)C)c(O)c(O)c(C=O)c2c(O)c1-c1c(C)cc2c(C(C)C)c(O)c(O)c(C=O)c2c1O	8.28% (inactive)	-0.04%	-1.93%
O=C1c2c(O)ccc(O)c2C(=O)c2c(NCCNCCO)ccc(NCCNCCO)c21	-19.7% (inactive)	-9.01%	36.3%
Cn1cnc([N+](=O)[O-])c1Sc1ncnc2nc[nH]c12	-6.53% (inactive)	-22.4%	4.78%
CCCCCCNC(=O)n1cc(F)c(=O)[nH]c1=O	-1.76% (inactive)	-6.64%	-7.12%
CC(C)(C)C(=O)OCOP(=O)(COCCn1cnc2c(N)ncnc21)OCOC(=O)C(C)(C)C	6.16% (inactive)	-3.43%	12.9%
CC(=O)[C@]1(O)Cc2c(O)c3c(c(O)c2[C@@H](O[C@H]2C[C@H](N)[C@H](O)[C@H](C)O2)C1)C(=O)c1ccccc1C3=O		-8.58%	-59.1%
COc1cccc2c1C(=O)c1c(O)c3c(c(O)c1C2=O)C[C@@](O)(C(C)=O)C[C@@H]3O[C@H]1C[C@H](N)[C@H](O)[C@H](C)O1	-2.27% (inactive)	0.52%	-18.3%
O=c1[nH]c(=O)n([C@H]2C[C@H](O)[C@@H](CO)O2)cc1C(F)(F)F	-3.93% (inactive)	-10.1%	6.77%
COc1cc(-c2ccc(=O)[nH]n2)ccc1OC(F)F	-7.69% (inactive)	-21.1%	1.13%
CCCCCCCCCCCCCCCC[n+]1ccccc1	-7.99% (inactive)	-19.8%	2.47%
Cc1cc(C2CCCCC2)n(O)c(=O)c1	-4.08% (inactive)	-25.7%	-3.23%
S=c1nc[nH]c2nc[nH]c12	-15% (inactive)	-36.3%	-4.89%
COc1cc([C@@H]2c3cc4c(cc3[C@H](O)[C@H]3COC(=O)[C@H]23)OCO4)cc(OC)c1OC	1.36% (inactive)	-11.9%	4.83%
Nc1nc(=S)c2[nH]cnc2[nH]1	-3.73% (inactive)	-20.1%	4.2%

Other lines, results leading:

inhibition (at 20 µM)	inhibition (inhibition, at 0.2 µM)	inhibition (inhibition, at 2 µM)	SMILES
96.3%	14.3%	79.6%	C=CC(=O)Nc1cc2c(Nc3ccc(F)c(Cl)c3)ncnc2cc1OCCCN1CCOCC1
44.8% (inactive)	-5.03%	16.4%	CSc1ccc2c(c1)C(N1CCN(C)CC1)Cc1ccccc1S2 (stereo not given)
10.1% (inactive)	-2.84%	22.6%	NC(=NCCCCCCN=C(N)/N=C(\N)Nc1ccc(Cl)cc1)/N=C(\N)Nc1ccc(Cl)cc1
-11.1% (inactive)	-33.5%	-4.17%	COC(=O)[C@H]1[C@H]2C[C@@H]3c4[nH]c5cc(OC)ccc5c4CCN3C[C@H]2C[C@@H](OC(=O)/C=C/c2ccc(O)c(OC)c2)[C@@H]1OC
11.7% (inactive)	-25.2%	8.15%	COC(=O)Nc1nc2ccc(C(=O)c3ccccc3)cc2[nH]1
-9.66% (inactive)	-10.8%	5.38%	COC(=O)Nc1nc2ccc(Sc3ccccc3)cc2[nH]1
99.7%	60.7%	97.5%	CNC(=O)c1cc(Oc2ccc(NC(=O)Nc3ccc(Cl)c(C(F)(F)F)c3)cc2)ccn1
72.3%	-3.88%	35.3%	COc1ccc(-c2nc3ccc(C4=NNC(=O)CC4C)cc3[nH]2)cc1 (stereo not given)
29.6% (inactive)	-12.3%	-71.5%	COc1ccc(-c2ccc3cc(C(=O)O)ccc3c2)cc1C12CC3CC(CC(C3)C1)C2
9.63% (inactive)	-10.3%	12.7%	CCCN(CCC)C(=O)C(CCC(=O)OCCCN1CCN(CCOC(=O)Cc2c(C)n(C(=O)c3ccc(Cl)cc3)c3ccc(OC)cc23)CC1)NC(=O)c1ccccc1 (stereo not given)
68.8%	-3.31%	33.1%	COC(=O)Nc1nc2ccc(C(=O)C3CC3)cc2[nH]1
-9.04% (inactive)	-28.1%	-0.96%	Oc1c(Cl)cc(Cl)c2cccnc12
17.2% (inactive)	-0.58%	8.33%	COc1cc2nc(N3CCN(C(=O)c4ccco4)CC3)nc(N)c2cc1OC
31.5% (inactive)	-9.59%	7.62%	O=C(O)c1ccc(-n2nc(-c3ccccc3O)nc2-c2ccccc2O)cc1
20.7% (inactive)	-4.16%	11.9%	CCCCc1oc2ccccc2c1C(=O)c1cc(I)c(OCCN(CC)CC)c(I)c1
-19.6% (inactive)	-33.4%	-2.36%	CC[C@@]1(O)C(=O)OCc2c1cc1n(c2=O)Cc2c-1nc1ccccc1c2/C=N/OC(C)(C)C
33.9% (inactive)	-29.8%	27.3%	COC(=O)Nc1nc2ccc(C(=O)c3cccs3)cc2[nH]1
	-26.7%	-3.06%	Nc1ccc2cc3ccc(N)cc3nc2c1
-229% (inactive)	-7.18%	0.42%	COc1cc(NCc2ccc3nc(N)nc(N)c3c2C)cc(OC)c1OC
76.9%	12.4%	76.3%	CNC(=O)c1ccccc1Sc1ccc2c(/C=C/c3ccccn3)n[nH]c2c1
-17.5% (inactive)	-18.3%	1.39%	O=C(NOCC1CC1)c1ccc(F)c(F)c1Nc1ccc(I)cc1Cl
61.7%	-9.71%	28.8%	CN1CC[C@H](c2c(O)cc(O)c3c(=O)cc(-c4ccccc4Cl)oc23)[C@H](O)C1
-5.73% (inactive)	-16.1%	13.8%	CC[C@]1(O)C[C@@H]2CN(CCc3c([nH]c4ccccc34)[C@@](C(=O)OC)(c3cc4c(cc3OC)N(C)[C@H]3[C@@](O)(C(=O)OC)[C@H](OC(C)=O)[C@]5(CC)C=CCN6CC[C@]43[C@@H]65)C2)C1
-8.2% (inactive)	-15.5%	16.7%	COC(=O)Nc1nc2ccc(S(=O)c3ccccc3)cc2[nH]1 (stereo not given)
